Results on seven molecules are retold here after PubChem BioAssay (NCI).

Test systems include 786-0 renal; EKVX NSCLC; HCT-15 colon; HS 578T breast; KM12 colon; NCI-H460 lung; RXF 393 renal; SK-OV-3 ovarian; SN12C renal; UACC-257 melanoma.
Common to all, as to test: inhibition of tumour cell growth, NCI panel, 48 h

Molecules are shown by their SMILES. Several values for one entry are separate records, joined by “and”; a condition that tells them apart may be missing. Equal entries are not always repeated.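 1) Cells in 96-well plates. 2) Compound, 48 h, 5 concentrations. 3) Linear interpolation between surrounding doses. 4) Unreached endpoint = highest concentration. At the GI50, growth is halved. TGI denotes the concentration required for complete inhibition of growth.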

Take `COc1ccc2[nH]c(O)c(C(=Nc3ccc(N(C)C(=O)CN4CCN(C)CC4)cc3)c3ccccc3)c2c1`: the GI50 in the test on 786-0 renal was 1900 nM; in the test with EKVX NSCLC it was 3940 nM; in the test with HCT-15 colon, 2650 nM; in the test on HS 578T breast, 1090 nM; in the test on KM12 colon it was 19.7 nM; in the test with NCI-H460 lung it was 2.83 µM. Further, the GI50 with RXF 393 renal was 1040 nM; with SK-OV-3 ovarian, 2960 nM; in the test on SN12C renal, 740 nM; in the test on UACC-257 melanoma, 1.73 µM. The TGI with 786-0 renal was 5.52 µM; in the test on EKVX NSCLC it was 16.2 µM; with HCT-15 colon, 12 µM; in the test with HS 578T breast, 4.67 µM; in the test on KM12 colon, 10.5 µM; in the test on NCI-H460 lung it was 11.1 µM. For the same molecule, the TGI was 2.36 µM in the test on RXF 393 renal, 9.32 µM in the test on SK-OV-3 ovarian, 10.4 µM in the test on SN12C renal and 4.08 µM in the test with UACC-257 melanoma.

As for `C=CC(=O)Nc1cc2c(Nc3ccc(F)c(Cl)c3)ncnc2cc1OCCCN1CCOCC1`, the GI50 with 786-0 renal is 2040 nM and 3040 nM; with EKVX NSCLC, 26.2 nM and 36.7 nM; with HCT-15 colon it was 1400 nM and 2170 nM; in the test with HS 578T breast, 2050 nM and 2210 nM; in the test on KM12 colon it was 3180 nM and 5300 nM; in the test on NCI-H460 lung, 3.65 µM and 5.27 µM. For the same molecule, the GI50 in the test with RXF 393 renal is 1320 nM and 1880 nM; with SK-OV-3 ovarian, 79.1 nM and 127 nM; in the test on SN12C renal, 805 nM and 1590 nM; in the test on UACC-257 melanoma, 3.42 µM and 9.15 µM. In addition, the TGI is 10.9 µM and > 10 µM in the test with 786-0 renal; 12.4 µM and > 10 µM in the test on EKVX NSCLC; 3.6 µM and > 6.04 µM in the test on HCT-15 colon; 7.21 µM and > 10 µM with HS 578T breast; 11.9 µM and > 10 µM in the test with KM12 colon; 15.4 µM and > 10 µM in the test with NCI-H460 lung. Besides, the TGI with RXF 393 renal was 2.82 µM and 6.23 µM; in the test with SK-OV-3 ovarian, 4.1 µM and > 9.32 µM; in the test on SN12C renal, 6.8 µM and > 10 µM; in the test with UACC-257 melanoma, 12.8 µM and > 10 µM.

As for `CC[PH+](CC)CC.O=COC1OC([S-])C(OC=O)C(OC=O)C1OC=O.[Au+]` (centres undefined), the GI50 was 1510 nM in the test with 786-0 renal; 1740 nM with EKVX NSCLC; 1140 nM in the test on HCT-15 colon; 775 nM with HS 578T breast; 1610 nM in the test with KM12 colon; 1.71 µM in the test with NCI-H460 lung. Also, the GI50 in the test on RXF 393 renal is 1350 nM; in the test with SK-OV-3 ovarian it was 1850 nM; in the test with SN12C renal, 1440 nM; with UACC-257 melanoma it was 1.19 µM. Also, the TGI in the test with 786-0 renal is 2.85 µM; in the test with EKVX NSCLC it was 3.32 µM; in the test with HCT-15 colon, 2.56 µM; in the test with HS 578T breast it was 4.76 µM; with KM12 colon it was 3.19 µM; with NCI-H460 lung, 3.69 µM. The TGI in the test with RXF 393 renal came to 2.72 µM; in the test with SK-OV-3 ovarian it was 3.36 µM; with SN12C renal, 2.75 µM; in the test on UACC-257 melanoma it was 3.29 µM.

With `CCn1c(-c2nonc2N)nc2c(C#CC(C)(C)O)nc(OCCNC)cc21`, the GI50 in the test on 786-0 renal was 7980 nM; in the test with EKVX NSCLC it was > 18300 nM; in the test on HCT-15 colon it was 9670 nM; in the test with HS 578T breast, 6030 nM; with KM12 colon, 5820 nM; in the test on NCI-H460 lung it was 7.83 µM. The GI50 was 4130 nM with RXF 393 renal, 5740 nM in the test on SK-OV-3 ovarian, 7840 nM in the test with SN12C renal and 7.96 µM in the test with UACC-257 melanoma. The TGI was > 25 µM in the test with 786-0 renal; > 25 µM in the test with EKVX NSCLC; > 25 µM in the test with HCT-15 colon; > 25 µM in the test on HS 578T breast; 23.3 µM in the test on KM12 colon; > 25 µM in the test with NCI-H460 lung. Besides, the TGI in the test with RXF 393 renal is 11 µM; in the test with SK-OV-3 ovarian, > 25 µM; in the test with SN12C renal, > 25 µM; in the test with UACC-257 melanoma, 24.7 µM.

Turning to `Cc1cc(Cl)ccc1Nc1nc(C(F)(F)F)ccc1C(=O)N/N=C/c1ccc([N+](=O)[O-])cc1`, the GI50 is 3090 nM in the test with 786-0 renal; 2370 nM with EKVX NSCLC; 803 nM with HCT-15 colon; 1140 nM with HS 578T breast; 838 nM in the test with KM12 colon; 2.28 µM with NCI-H460 lung. Further, the GI50 with RXF 393 renal was 781 nM; in the test with SK-OV-3 ovarian, 2160 nM; with SN12C renal, 2920 nM; with UACC-257 melanoma it was 1.38 µM. Moreover, the TGI is > 40.9 µM in the test with 786-0 renal; > 29.7 µM in the test on EKVX NSCLC; 2.91 µM in the test with HS 578T breast; 2.43 µM in the test with KM12 colon; 7.45 µM in the test with NCI-H460 lung; 3.22 µM in the test with RXF 393 renal. In addition, the TGI was 7.27 µM with SK-OV-3 ovarian, > 100 µM in the test on SN12C renal and 5.11 µM with UACC-257 melanoma.

On to `COc1ccc(C2=NN(C=O)C(c3cccc(Nc4ccnc5cc(Cl)ccc45)c3)C2)cc1` (centres undefined), for which the GI50 in the test on 786-0 renal is 3430 nM; with EKVX NSCLC it was 2800 nM; in the test with HCT-15 colon, 2130 nM; with HS 578T breast it was 3920 nM; in the test with KM12 colon it was 2180 nM; with NCI-H460 lung it was 2.73 µM. In addition, the GI50 was 1660 nM in the test on RXF 393 renal, 3330 nM in the test with SK-OV-3 ovarian, 4450 nM in the test with SN12C renal and 3.06 µM in the test with UACC-257 melanoma. Further, the TGI with 786-0 renal is 17.6 µM; in the test on EKVX NSCLC it was > 100 µM; with HCT-15 colon, 17 µM; with HS 578T breast it was 39.4 µM; in the test with KM12 colon it was 37 µM; in the test on NCI-H460 lung it was 15.7 µM. Also, the TGI with RXF 393 renal was 7.61 µM; in the test on SK-OV-3 ovarian, 23.3 µM; with SN12C renal, > 100 µM; with UACC-257 melanoma, 28.5 µM.

As for `COc1cc(-c2cn(-c3ccc(Cl)c(Cl)c3)c(=O)n2C(C)=O)cc(OC)c1OC`, the GI50 in the test with 786-0 renal is 2790 nM; with EKVX NSCLC, 2600 nM; in the test with HCT-15 colon, 18100 nM; in the test on HS 578T breast it was 6160 nM; in the test with KM12 colon, 12300 nM; with NCI-H460 lung, 10.5 µM. In addition, the GI50 is 3340 nM in the test on RXF 393 renal, 15400 nM in the test on SK-OV-3 ovarian, 12300 nM with SN12C renal and 7.51 µM in the test on UACC-257 melanoma. Also, the TGI in the test with 786-0 renal stood at 11.5 µM; in the test with EKVX NSCLC, 8.26 µM; in the test on HCT-15 colon, 45.9 µM; in the test with HS 578T breast, 29.3 µM; with KM12 colon it was 28.6 µM; with NCI-H460 lung, 25.1 µM. The TGI was 14.9 µM with RXF 393 renal, 33.3 µM in the test with SK-OV-3 ovarian, 31.1 µM with SN12C renal and 23.2 µM with UACC-257 melanoma.
